Consider 5 molecules from patent US20160338928A1, “SKIN ENGAGING MEMBER COMPRISING A CYCLOHEXANECARBOXAMIDE DERIVATIVE” (The Gillette Company, priority 2015, published 2016).

The conditions of experiment [1]: concentration where the cooling effect could be clearly recognized; reported by Emberger and Hopp 1987; cited from earlier work.
The target in another experiment is T1, human TRPM8 (Homo sapiens, UniProt Q7Z2W7).
T1 construct: expressed in transfected cells
Description: TRPM8 activation, FLIPR calcium flux in HEK cells stably transfected with human TRPM8. The experiment is classed as cell-based. The conditions noted are these: amino acid derived side chain (alanine) in R (28) and S (776) configuration. The procedure:
[…] (human embryonic kidney) cells stably transfected with human TRPM8 are grown in 15 ml growth medium (high glucose DMEM (Dulbecco's Modification of Eagle's Medium) supplemented with 10% FBS (fetal bovine serum), 100 ug/ml penicillin/streptomycin, 5 μg/ml blasticindin, and 100 μg/ml zeocin) in a 75 CM^2 flask for 3 days at 37° C. in a mammalian cell culture incubator set at 5% CO2. Cells are detached with addition of 2 ml of trypsin-EDTA buffer (GIBCO® 25200, Invitrogen) for about 2-3 min. Trypsin is inactivated by addition of 8 ml growth medium. Cells are transferred to a 50 ml tube and centrifuged at 850 rpm for 3 minutes to remove medium. After centrifugation, a pellet of cells is formed in the bottom of the tube separating them from the supernatant solution. […] (Fluo-4 AM is a fluorescent dye used for quantifying cellular Ca^2+ concentrations in the 100 nM to 1 microM range.) At the end of 30 minutes, 45 ml of assay buffer (1×HBSS (Hank's Balanced Salt Solution), 20 mM HEPES (4-(2-Hydroxyethyl)-1-piperazineethanesulfonic acid)) is added to wash cells and the resulting mixture is then centrifuged at 850 rpm for 3 minutes to remove excess buffer and Fluo-4 AM calcium indicator. […]

T1 sequence (Q7Z2W7 whole entry): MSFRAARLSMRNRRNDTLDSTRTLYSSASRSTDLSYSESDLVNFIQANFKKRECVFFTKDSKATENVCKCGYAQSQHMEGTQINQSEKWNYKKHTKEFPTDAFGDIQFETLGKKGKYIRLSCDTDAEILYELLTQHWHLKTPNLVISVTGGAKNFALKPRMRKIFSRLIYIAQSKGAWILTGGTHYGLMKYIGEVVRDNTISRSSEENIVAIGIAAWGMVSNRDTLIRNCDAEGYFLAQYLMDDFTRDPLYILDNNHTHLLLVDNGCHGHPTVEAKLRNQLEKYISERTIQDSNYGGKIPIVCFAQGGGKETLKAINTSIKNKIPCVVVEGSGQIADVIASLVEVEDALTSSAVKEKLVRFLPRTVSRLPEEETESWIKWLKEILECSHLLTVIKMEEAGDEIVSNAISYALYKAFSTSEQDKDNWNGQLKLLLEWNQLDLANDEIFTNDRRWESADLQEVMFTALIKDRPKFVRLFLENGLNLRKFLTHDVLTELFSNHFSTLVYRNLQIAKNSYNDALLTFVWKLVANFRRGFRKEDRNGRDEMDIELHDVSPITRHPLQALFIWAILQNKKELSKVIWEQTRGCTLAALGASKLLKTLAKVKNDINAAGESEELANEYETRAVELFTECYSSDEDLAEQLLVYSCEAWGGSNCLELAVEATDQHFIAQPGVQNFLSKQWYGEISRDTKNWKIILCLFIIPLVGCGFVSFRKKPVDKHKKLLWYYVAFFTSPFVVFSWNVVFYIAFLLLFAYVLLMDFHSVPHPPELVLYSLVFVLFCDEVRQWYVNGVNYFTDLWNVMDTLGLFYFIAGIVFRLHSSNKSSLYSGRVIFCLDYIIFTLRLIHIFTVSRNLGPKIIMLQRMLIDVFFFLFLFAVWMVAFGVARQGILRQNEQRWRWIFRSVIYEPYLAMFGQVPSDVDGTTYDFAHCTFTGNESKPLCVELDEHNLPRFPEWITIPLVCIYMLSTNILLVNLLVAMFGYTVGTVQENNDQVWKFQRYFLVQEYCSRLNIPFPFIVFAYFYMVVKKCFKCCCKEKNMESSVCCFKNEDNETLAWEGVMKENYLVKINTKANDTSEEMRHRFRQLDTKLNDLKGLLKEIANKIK

Take `CC(C)[C@@H]1CC[C@@H](C)C[C@H]1O` [L-menthol]: the cooling threshold result in experiment [1] was “about 800 ppb”.
`CC(C)[C@@H]1CC[C@@H](C)C[C@@H]1O` [d-neomenthol]: in experiment [1], the cooling threshold result is “about 25,000 ppb”.
Take `CC(C)[C@@H]1CC[C@@H](C)C[C@H]1C(=O)NCC(NC(=O)[C@@H](C)N)c1ccccc1` (some centres unmarked) [Compound 28]: the “activity towards the receptor” value at human TRPM8 was “excellent activity”.
The same measure, in the same setting: as for `COc1ccc(NC(=O)[C@@H]2C[C@H](C)CC[C@H]2C(C)C)c(NC(=O)[C@H](C)N)c1` [Compound 776], the entry is “excellent activity”.
As to `CC(C)[C@@H]1CC[C@@H](C)C[C@@H]1O` [Compound 1-neomenthol, 1-neomenthol], the cooling threshold entry in experiment [1] is reported as “about 3,000 ppb”.
